Test results from patent US20240148664A1, “LIPID AND COMPOSITION” (SOGO PHARMACEUTICAL CO., LTD., priority 2021, published 2024).

Key:
[1] = tested on: HT1080-EGFP (human/fibrosarcoma) cells; assay: Evaluation of knockdown effect (GFP assay), Cell experiment 1; assay type: cell-based; conditions: lipid nanoparticle containing siRNA against EGFP; fluorescence intensity with control cells without lipid nanoparticle set at 100
Procedure: A cell experiment was carried out by using HT1080-EGFP (human/fibrosarcoma) cells in order to evaluate lipid nanoparticles encapsulating an siRNA produced by using the lipids of the Examples and the Comparative Examples. These cells are cells provided with a green fluorescent protein gene (EGFP). The expression of EGFP can be easily confirmed by measuring the fluorescence intensity of a solution in which the cells are lysed, and thus by acting lipid nanoparticles encapsulating an siRNA that suppresses the expression of EGFP and observing any decrease in fluorescence intensity, the performance of the lipid nanoparticles used can be evaluated. Hereinafter, the procedure of the cell experiment will be shown.
(§1) A. Provision of Cells • (i) A liquid medium (DMEM/Ham's F12, FBS+, P/S+) (FBS: fetal bovine serum, P/S: antibiotic) was taken out from a refrigerator and temperature-controlled in an incubator set at 37° C. • (ii) A cryotube containing the cells was taken out from a −80° C. freezer and thawed at once in an incubator set at 37° C. • (iii) A stock solution of the thawed cells was collected in a capped test tube. • (iv) The tube containing the cells was washed with the liquid medium, and the wash was also collected in the test tube. • (v) The tube was subjected to a centrifuge to precipitate the cells. • (vi) The supernatant was aspirated, and the liquid medium was added and gently tapped to disperse the cells. • (vii) A small amount of the cells-dispersed liquid medium was collected, and the number of cells was observed and counted under a microscope. • (viii) The cells were seeded in a 24-well plate such that the number of cells was 2×10^4 cells per well. For the plate for an LDH assay described later, the cells were seeded in a 96-well plate such that the number of cells was 4×10^3 cells per well. • (ix) The 24-well plate or the 96-well plate was placed in an incubator, and the cells were cultured for 24 hours under conditions of 37° C. and 5% CO2.
The produced lipid nanoparticles were introduced into cells. • (i) Fetal bovine serum (FBS) was added to a liquid medium (FBS-, P/S-) temperature-controlled as in (i) of A above, in such a way as to reach 10%. • (ii) A 24-well plate was taken out from an incubator, and the liquid medium supernatant in the 24-well plate was aspirated and washed with phosphate buffered saline (PBS). • (iii) 400 μL of the liquid medium produced in (i) above was added to the washed 24-well plate. In addition, 100 μL of an LNP solution having an adjusted concentration was added. • (iv) The 24-well plate was placed in the incubator, and the cells were cultured (for 24 hours). • (v) After 24 hours, the liquid medium supernatant in the 24-well plate was aspirated, and 500 μL of a liquid medium containing 10% FBS (FBS+/P/S+) was added. • (vi) The 24-well plate was placed in the incubator, and the cells were cultured for 24 hours under conditions of 37° C. and 5% CO2.
By carrying out a GFP assay, the EGFP expression level in cells was measured to evaluate the effect of knocking down the green fluorescent protein gene (EGFP) by lipid nanoparticles. • (i) A 24-well plate was taken out from an incubator and washed with PBS. • (ii) A 1% octylglucoside solution to which a protease inhibitor was added was added in order to disrupt cells. Stirring with a pipette lysed the cells. • (iii) The cell lysate was transferred to an Eppendorf tube and subjected to a centrifuge. • (iv) 150 μL of the supernatant was collected and added to a plate for fluorescence measurement. • (v) The fluorescence intensity was measured under conditions of an excitation wavelength of 485 nm and a fluorescence wavelength of 535 nm with a plate reader (manufactured by TECAN, Infinite M200). The fluorescence intensity was calculated with the fluorescence intensity of control cells to which no lipid nanoparticle was added set at 100.

[2] = tested on: HT1080-EGFP (human/fibrosarcoma) cells; assay: Evaluation of toxicity: LDH assay; assay type: cell-based; conditions: lipid nanoparticle containing siRNA; absorbance relative to control cells without lipid nanoparticle set at 1.00
Procedure: as §1
The introduction of lipid nanoparticles into cells for an LDH assay described later was carried out as follows. • (i) A 96-well plate was taken out from an incubator. • (ii) The liquid medium supernatant in the 96-well plate was aspirated and washed with phosphate buffered saline (PBS). • (iii) 160 μL of a liquid medium containing 10% FBS (FBS+/P/S+) was added to the washed 96-well plate. In addition, 40 μL of an LNP solution having an adjusted concentration was added. • (iv) The 96-well plate was placed in the incubator, and the cells were cultured for 24 hours under conditions of 37° C. and 5% CO2.
For Examples 1 to 9, a CCK-8 assay or an LDH assay was carried out to measure the metabolic activity of viable cells and relatively quantify the number of surviving cells to evaluate the toxicity of lipid nanoparticles.
An LDH assay was carried out by using a viable cell counting kit (DOJINDO LABORATORIES, Cytotoxicity LDH Assay Kit-WST) as follows. • (i) 20 μL of a lysis buffer was added to each of positive control wells and incubated at 37° C. for 30 minutes in an incubator. • (ii) 100 μL of the supernatant was taken from each well and transferred to a 96-well plate for measurement. • (iii) 100 μL of the reagent mixture attached to the kit was added to all the wells, and a color reaction was carried out for 30 minutes at room temperature with exclusion of light. • (iv) 50 μL of the stop solution reagent attached to the kit was added to all the wells. • (v) The 96-well plate was measured under conditions of a measurement wavelength of 490 nm and a target wavelength of 630 nm with a plate reader (manufactured by TECAN, Infinite M200) to calculate the absorbance. The absorbance was calculated with the absorbance of control cells to which no lipid nanoparticle was added set at 1.00. When the obtained value was 0.50 or less, a rating of double-circle (excellent) was given, when the obtained value was more than 0.50 and 1.0 or less, a rating of circle (good) was given, when the obtained value was more than 1.0 and less than 6.0, a rating of triangle (fair) was given, and when the obtained value was 6.0 or more, a rating of X-mark (poor) was given.

[3] = Measurement of particle size, polydispersity index and zeta potential of lipid nanoparticle (Zetasizer); assay type: physicochemical; conditions: lipid nanoparticle containing siRNA; for Particle size (nm) / PDI: main lipid/DPPC/cholesterol=45/10/45; for Particle size (nm): Z-average in ultrapure water; for PDI: ultrapure water; for Zeta potential (mV): pH 7.4 Tris-HCl
Procedure: 30 μL of each of the dialyzed lipid nanoparticle-containing solutions obtained by the above operation was measured out, 800 μL of ultrapure water was added to dilute the lipid nanoparticle-containing solution, and the diluted preparation solution was used to measure the particle size (nm) and the polydispersity index (PDI) by using a Zetasizer (manufactured by Malvern Panalytical, Zetasizer nano Ultra). The particle size was evaluated by Z-average in ultrapure water. The zeta potential was measured by using pH 7.4 Tris-HCl as a dilute solution.

[4] = siRNA / mRNA encapsulation rate of lipid nanoparticle (RiboGreen); assay type: physicochemical; conditions: siRNA encapsulation rate of lipid nanoparticle
Procedure: The siRNA encapsulation rate and the mRNA encapsulation rate of the lipid nanoparticle were obtained as follows. First, a surfactant (Sigma-Aldrich, Triton (registered trademark), X-100 (reducing type)) was added to the lipid nanoparticle-containing solution to disrupt the lipid nanoparticle to release the encapsulated siRNA or mRNA. The amounts of the lipid nanoparticle-containing solution and the surfactant were adjusted such that the siRNA or the mRNA was 2 pmol and the surfactant was 1% in 40 μL of the solution after adding the surfactant to the lipid nanoparticle-containing solution. Next, the RiboGreen reagent (reagent that reacts with siRNA to emit fluorescence, manufactured by Thermo Fisher Scientific, Quant-iT (registered trademark) RiboGreen (registered trademark) RNA Assay Kit) was added to the solution, and the fluorescence intensity was measured under conditions of an excitation wavelength of 480 nm and a fluorescence wavelength of 520 nm with a fluorescence intensity meter (manufactured by TECAN, Infinite M200). Specifically, 75 μL of the RiboGreen reagent diluted to 1/2000 was added to a diluted solution obtained by adding 65 μL of citrate buffer to 10 μL of the solution, and the fluorescence intensity was measured. This makes it possible to relatively measure the total amount of the siRNA or the total amount of the mRNA present in the solution.
Subsequently, the RiboGreen reagent was added to the lipid nanoparticle-containing solution without adding a surfactant, and the fluorescence intensity was measured in the same manner with a fluorescence intensity meter. By not adding a surfactant, it is possible to relatively measure the amount of the siRNA or the mRNA free in the solution without being encapsulated in the lipid nanoparticle.
Then, the fluorescence intensity obtained from the solution to which the surfactant was added obtained as described above was fluorescence intensity a, and the fluorescence intensity thus obtained from the solution to which no surfactant was added obtained as described above was fluorescence intensity b, and according to the expression (a−b)/a×100, the siRNA encapsulation rate (%) or the mRNA encapsulation rate (%) of the lipid nanoparticle was obtained. Each of fluorescence intensity a and fluorescence intensity b is a value obtained by subtracting a blank from the arithmetic average value of the results of three measurements for each solution. The blank was measured by carrying out the same operation on a well containing water containing no cell or lipid nanoparticle.

Particle size (nm) [3]	PDI [3]	Zeta potential (mV) [3]	Encapsulation rate (%) [4]	SMILES	GFP Assay [1]	LDH Assay [2]
				CCCCCCCC/C=C\CCCCCCCCC(CCCCCCC/C=C\CCCCCCCC)OC(=O)C(Cc1c[nH]cn1)NC(=O)C(N)CCCNC(=N)N (stereo not drawn) [Example 3, (9Z,27Z)-hexatriaconta-9,27-dien-18-ylarginylhistidinate]	22	◯ (when the obtained value was more than 0.50 and 1.0 or less, a rating of circle (good) was given)
759.4 nm	0.508	32.7 mV	100%	CC/C=C\CCC(CCCCCCCCCCC/C=C\CCCCCCCC)OC(=O)[C@@H](N)CCCCN (stereo partly drawn) [Comparative Example 9, (3Z,19Z)-octacosa-3,19-dien-7-yl lysinate, reference compound]		
212.1 nm	0.022	27.5 mV	99%	CCCCCC/C=C\CCCCCCCCC(CCCCCCC/C=C\CCCCCC)OC(=O)C(N)CCCCN (stereo not drawn) [Comparative Example 6, (7Z,25Z)-dotriaconta-7,25-dien-16-yl lysinate, reference compound]		
		27.8 mV		CCCCCCCC/C=C\CCCCCCCCC(CCCCCCC/C=C\CCCCCCCC)OC(=O)C(N)C(C)O (stereo not drawn) [Comparative Example 1, (9Z,27Z)-hexatriaconta-9,27-dien-18-yl 2-amino-3-hydroxybutanoate, reference compound]		
149.8 nm	0.021	21.0 mV	99%	CCCCCCCC/C=C\CCCCCCCCCCCCC(CCCCCCCCCCC/C=C\CCCCCCCC)OC(=O)[C@@H](N)CCCCN (stereo partly drawn) [Comparative Example 7, (9Z,35Z)-tetratetraconta-9,35-dien-22-yl lysinate, reference compound]		
233.1 nm	0.187	29.7 mV	100%	CC/C=C\CCC(CCCCCCC/C=C\CCCCCC)OC(=O)[C@@H](N)CCCCN (stereo partly drawn) [Comparative Example 8, (3Z,15Z)-docosa-3,15-dien-7-yl lysinate, reference compound]		
147.5 nm	0.063	26.5 mV	99%	CCCCCCCC/C=C\CCCCCCCCC(CCCCCCC/C=C\CCCCCCCC)OC(=O)[C@@H](N)CCCCN (stereo partly drawn) [Comparative Example 4, (9Z,27Z)-hexatriaconta-9,27-dien-18-yl lysinate, reference compound]	86	
324.5 nm	0.731	50.8 mV	100%	CCCCC/C=C\CCCC(CC/C=C\CCCCC)OC(=O)C(N)CCCCN (stereo not drawn) [Comparative Example 5, (6Z,14Z)-icosa-6,14-dien-10-yl lysinate, reference compound]		
103.6 nm	0.095	36.8 mV	98%	CCCCC/C=C\C/C=C\CCCCCCCCC(CCCCCCC/C=C\C/C=C\CCCCC)OC(=O)C(NC(=O)C(N)CCCNC(=N)N)C(C)O (stereo not drawn) [Example 10, (6Z,9Z,27Z,30Z)-hexatriaconta-6,9,27,30-tetraen-18-yl 2-(2-amino-5-guanidinopentanamido)-3-hydroxybutanoate]	11	
